Experimental data as given in publication PMC3265293, “Artificial 64-Residue HIV-1 Enhancer-Binding Peptide Is a Potent Inhibitor of Viral Replication in HIV-1-Infected Cells” (Advances in Virology, 2011).
Where no end group is shown, it is not given here.

What was measured:
CEM-GFP cells = experiment: MTT assay of PMA-stimulated CEM-GFP cells; format: cell-based, human; conditions: PMA and increasing concentrations of peptide, after 48 h
Description: After 48 h, cell growth-inhibitory effects of the peptides and PMA were assessed using the 3-[4,5-dimethylthiazol-2-yl]-2,5-diphenyltetrazolium bromide (MTT) assay.

plasma membrane = tested on: plasma membrane; parameters: method as in earlier work; conditions: ref earlier work; cited from earlier work

GKTKRPRFGKTKRPRVGQQSIEQLENGKTKRPRFGKTKRPRY [R42]
cytotoxicity (MTT assay) (CEM-GFP cells): not observed
ability to pass the plasma membrane (plasma membrane): not able to pass the plasma membrane
